{"source": "patent US6281211A", "about": "“Substituted semicarbazides and the use thereof” (Euro-Celtique S.A., priority 2000, dated 2001)", "key": {"[1]": {"tested_on": "maximal electroshock-induced seizures (MES)", "test": "maximal electroshock-induced seizures (MES) test in mice", "format": "in vivo", "conditions": "Mus musculus", "method": "The compounds of the present invention may be tested for in vivo anticonvulsant activity after iv. po or ip injection using a number of anticonvulsant tests in mice (audiogenic seizure model in DBA-2 mice, pentylenetetrazol-induced seizures in mice, maximum electroshock seizure test (MES)).\nThe ability of 1-[4-(4-fluorophenoxy)benzyl]semicarbazide to block maximal electroshock-induced seizures (MES) was determined by the following procedure.\nSeizures were induced by application of current (50 mA, 60 pulses/sec, 0.8 msec pulse width, 1 sec duration, D.C.) using a Ugo Basile ECT device (model 7801). Mice were restrained by gripping the loose skin on their dorsal surface and saline-coated corneal electrodes were held lightly against the two cornea. […] A tonic seizure was defined as a hindlimb extension in excess of 90 degrees from plane of the body.\n1-[4-(4-Fluorophenoxy)benzyl]semicarbazide was administered iv to mice 10 min before the test procedure."}, "[2]": {"tested_on": "global and focal ischemia", "conditions": "animal models of global and focal ischemia; cited from earlier work"}, "hSkM1 sodium channels": {"target": "T1, hSkM1 sodium channels (Homo sapiens, UniProt P35499)", "T1 construct": "expressed in transfected cells", "T1 sequence (P35499 whole entry, canonical isoform)": "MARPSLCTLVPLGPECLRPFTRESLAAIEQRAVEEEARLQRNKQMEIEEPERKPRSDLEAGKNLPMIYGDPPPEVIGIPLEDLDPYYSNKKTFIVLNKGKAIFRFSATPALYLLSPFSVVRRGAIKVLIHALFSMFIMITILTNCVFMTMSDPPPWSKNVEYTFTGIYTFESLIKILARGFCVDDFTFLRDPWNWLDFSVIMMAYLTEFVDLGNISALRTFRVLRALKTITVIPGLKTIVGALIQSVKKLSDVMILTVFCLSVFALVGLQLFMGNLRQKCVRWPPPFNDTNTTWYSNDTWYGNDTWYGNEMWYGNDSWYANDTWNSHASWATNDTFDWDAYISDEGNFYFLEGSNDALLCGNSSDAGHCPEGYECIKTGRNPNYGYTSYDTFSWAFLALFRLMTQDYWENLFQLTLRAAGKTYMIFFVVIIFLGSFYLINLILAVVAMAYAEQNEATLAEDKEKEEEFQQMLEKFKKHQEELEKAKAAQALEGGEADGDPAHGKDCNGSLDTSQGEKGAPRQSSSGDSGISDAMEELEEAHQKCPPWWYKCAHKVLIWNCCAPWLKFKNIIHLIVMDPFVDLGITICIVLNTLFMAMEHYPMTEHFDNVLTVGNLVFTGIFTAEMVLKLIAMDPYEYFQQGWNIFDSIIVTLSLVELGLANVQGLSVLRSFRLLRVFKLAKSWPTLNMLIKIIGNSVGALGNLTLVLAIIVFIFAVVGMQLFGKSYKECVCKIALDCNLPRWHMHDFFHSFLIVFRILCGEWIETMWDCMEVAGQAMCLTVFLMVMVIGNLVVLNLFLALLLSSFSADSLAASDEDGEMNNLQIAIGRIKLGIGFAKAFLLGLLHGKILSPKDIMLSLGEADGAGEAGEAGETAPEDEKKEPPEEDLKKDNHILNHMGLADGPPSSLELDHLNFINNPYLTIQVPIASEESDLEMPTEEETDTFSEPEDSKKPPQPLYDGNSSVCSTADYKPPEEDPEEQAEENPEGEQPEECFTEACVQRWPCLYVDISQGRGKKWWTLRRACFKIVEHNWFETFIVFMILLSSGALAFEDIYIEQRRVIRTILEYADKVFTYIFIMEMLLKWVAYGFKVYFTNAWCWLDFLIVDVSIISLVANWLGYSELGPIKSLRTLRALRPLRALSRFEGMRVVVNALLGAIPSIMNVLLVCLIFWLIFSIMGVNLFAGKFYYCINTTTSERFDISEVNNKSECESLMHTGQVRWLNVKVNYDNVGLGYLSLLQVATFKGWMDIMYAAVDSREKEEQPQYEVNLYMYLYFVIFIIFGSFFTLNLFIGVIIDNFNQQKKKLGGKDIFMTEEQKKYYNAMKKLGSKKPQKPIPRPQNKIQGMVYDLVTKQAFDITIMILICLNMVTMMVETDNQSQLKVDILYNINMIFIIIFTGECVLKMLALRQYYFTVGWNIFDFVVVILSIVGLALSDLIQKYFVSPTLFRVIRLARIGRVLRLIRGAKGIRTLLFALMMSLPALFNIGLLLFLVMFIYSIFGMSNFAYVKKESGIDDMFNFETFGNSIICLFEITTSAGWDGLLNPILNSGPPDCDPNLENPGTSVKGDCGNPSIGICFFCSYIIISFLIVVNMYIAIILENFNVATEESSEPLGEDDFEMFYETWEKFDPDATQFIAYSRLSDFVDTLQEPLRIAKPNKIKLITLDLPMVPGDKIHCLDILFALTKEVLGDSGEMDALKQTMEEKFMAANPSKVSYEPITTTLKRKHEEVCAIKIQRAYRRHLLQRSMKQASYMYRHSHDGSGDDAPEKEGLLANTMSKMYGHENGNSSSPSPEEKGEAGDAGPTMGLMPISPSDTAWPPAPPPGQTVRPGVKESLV", "test": "Electrophysiological assay: whole-cell patch-clamp recordings of voltage-gated Na+ currents in HEK-293 cells stably expressing hSkM1", "format": "cell-based", "method": "Electrophysiological Assay:\nCellpreparation: HEK-293 cells stably expressing the hSkM1 isoform of Na^+ channels (generous gift from Dr. A. L. George, Vanderbilt University Medical School) were cultured using standard techniques, as described previously (Verdoorn, T. A, et al., Neuron 4:919-928 (1990)). For electrophysiology, cells were plated onto 35 mm Petri dishes (pre-coated with poly-D-lysine) at a density of 1:40 on the day of re-seeding from confluent cultures. Cells are suitable for recordings for 2-3 days after plating.\nPatch-clamp recordings of voltage-sensitive Na^+ currents: Whole-cell voltage-clamp recordings were made using conventional patch-clamp techniques (Hamill et al, Pfluegers Arch. 391:85-100 (1981)) with an Axopatch 200 A amplifier (Axon Instruments, Foster City, Calif.). Recordings were made within 2-3 hours after neuron dissociation. The recording chamber was continuously superfused with the external solution (150 mM NaCl, 5.4 mM KCl, 1.8 mM CaCl2, 1 mM MgCl2, 10 mM HEPES, 10 mM glucose, pH 7.4 (NaOH)) at a speed of about 1 ml/min. Recording pipettes were pulled from thick-walled capillaries (WPI, Sarasota, Fla.) and fire-polished. The pipette resistances ranged from 1 to 3 M.OMEGA. when the pipettes were filled with internal solution containing (in mM): 110 CsF, 10 NaCl, 5 MgCl2, 11 EGTA, 10 HEPES, pH adjusted to 7.4 with CsOH. Osmolality was set with a difference of 15-20 mmol/kg between external and internal solutions (lower inside the cell). Drugs and intervening wash-outs were applied through a linear array of flow pipes (Drummond Microcaps, 2-μl, 64-mm length). Compounds are dissolved in dimethylsulfoxide (DMSO) to make a […] stock solution, which was subsequently diluted into the external solution to give final concentrations of 0.1-100 μM. At the highest (1%) concentration, DMSO inhibited the size of Na^+ current only slightly. Currents were recorded at room temperature (22-25° C.), filtered at 5 kHz with an active 8-pole Bessel filter (Frequency Devices, Haverhill, Mass.), digitized at 10-50-μs intervals, and stored using Digidata 1200 analog/digital interface with Pclamp6/Clampex software (Axon Instruments).Series resistance was cancelled typically by ~75% when necessary. The inhibitory potency of drugs was assessed by measuring reductions in the peak amplitude of Na^+ currents induced by increasing concentrations of compounds tested. Na^+ currents were elicited by stepping membrane voltage from holding potentials over the range -100 mV to -50 mV, to a pulse potential of -10 mV. The test pulse duration was 5-10 msec, repeated at a frequency ≤1 Hz. Concentration-inhibition curves were fitted with equation 1:\nI/Icontrol =1/(1+([compound]/IC50)) Eq. 1 […]"}, "ALS": {"tested_on": "ALS", "conditions": "subset of patients with ALS; cited from earlier work"}, "[3]": {"conditions": "HEK-293 cells stably expressing hSkM1"}}, "note": "Like-named read-outs stand apart in the source and are kept apart here.", "data": [{"compound": "NC(=O)NNCc1ccc(Oc2ccc(F)cc2)c(F)c1", "note": "[1-[3-Fluoro-4-(4-fluorophenoxy)benzyl]semicarbazide]", "values": [{"measurement": "ED50", "setting": "[1]; po, read-out: ED50 against MES", "value": 3.2, "unit": "mg/kg"}]}, {"compound": "CN1CCN(c2ncc(-c3cc(Cl)cc(Cl)c3Cl)c(N)n2)CC1", "note": "[BW619C89]", "values": [{"measurement": "neuroprotective activity", "setting": "[2]", "value": "neuroprotective"}]}, {"compound": "NC(=O)NNCc1ccc(Oc2ccc(F)cc2)cc1", "note": "[1-[4-(4-Fluorophenoxy)benzyl]semicarbazide]", "values": [{"measurement": "inhibition of voltage-gated sodium currents", "setting": "hSkM1 sodium channels; [3]", "value": "dose-dependent inhibition"}, {"measurement": "sensitivity of blocking effect on Na+ currents to the holding voltage", "setting": "hSkM1 sodium channels; [3]", "value": "highly sensitive to the holding voltage"}, {"measurement": "Kd", "setting": "hSkM1 sodium channels; inactivated sodium channels, read-out: apparent antagonist dissociation constant (Kd) for inactivated sodium channels", "value": "~7.5", "unit": "µM"}, {"measurement": "potency towards Na+ channels in their resting states", "setting": "hSkM1 sodium channels; resting states", "value": "weak potency"}, {"measurement": "ED50", "setting": "[1]; 10 min, iv, 10 min before the test, read-out: ED50 (the dose protecting 50% of animals) against MES", "value": 4.2, "unit": "mg/kg"}]}, {"compound": "Nc1nc2ccc(OC(F)(F)F)cc2s1", "note": "[riluzole]", "values": [{"measurement": "survival", "setting": "ALS", "value": "prolong survival"}]}, {"compound": "Cc1ccc(-c2nc(C)c(CN3CCN(C(c4ccccc4)c4ccccc4)CC3)[nH]2)cc1", "note": "[lifarizine]", "values": [{"measurement": "neuroprotective activity", "setting": "[2]", "value": "neuroprotective"}]}]}
